# Reference: US20250313548A1 (Actio Biosciences, Inc., priority 2023, published 2025)
# Target: human, KCNT1 (Homo sapiens (Human), UniProt Q5JUK3)
# Assay: FLIPR Tl/K Flux Assay
# Assay type: cell-based
# Conditions: HEK293 cells stably expressing human KCNT1; Tl+ flux stimulated with EC80 of agonist Loxapine
# Method in brief: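 HEK293 cells stably expressing human KCNT1 were loaded with FLIPR potassium dye in HEPES/HBSS pH 7.4 with 5 mM probenecid, 1 h at 25 °C, then given test compound for 30 min at 25 °C. Tl+ flux was triggered with chloride-free buffer containing Tl+ and EC80 loxapine and read 160 s. IC50 came from Hill fits of % inhibition.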
# Sequence of human, KCNT1 (Q5JUK3 whole entry): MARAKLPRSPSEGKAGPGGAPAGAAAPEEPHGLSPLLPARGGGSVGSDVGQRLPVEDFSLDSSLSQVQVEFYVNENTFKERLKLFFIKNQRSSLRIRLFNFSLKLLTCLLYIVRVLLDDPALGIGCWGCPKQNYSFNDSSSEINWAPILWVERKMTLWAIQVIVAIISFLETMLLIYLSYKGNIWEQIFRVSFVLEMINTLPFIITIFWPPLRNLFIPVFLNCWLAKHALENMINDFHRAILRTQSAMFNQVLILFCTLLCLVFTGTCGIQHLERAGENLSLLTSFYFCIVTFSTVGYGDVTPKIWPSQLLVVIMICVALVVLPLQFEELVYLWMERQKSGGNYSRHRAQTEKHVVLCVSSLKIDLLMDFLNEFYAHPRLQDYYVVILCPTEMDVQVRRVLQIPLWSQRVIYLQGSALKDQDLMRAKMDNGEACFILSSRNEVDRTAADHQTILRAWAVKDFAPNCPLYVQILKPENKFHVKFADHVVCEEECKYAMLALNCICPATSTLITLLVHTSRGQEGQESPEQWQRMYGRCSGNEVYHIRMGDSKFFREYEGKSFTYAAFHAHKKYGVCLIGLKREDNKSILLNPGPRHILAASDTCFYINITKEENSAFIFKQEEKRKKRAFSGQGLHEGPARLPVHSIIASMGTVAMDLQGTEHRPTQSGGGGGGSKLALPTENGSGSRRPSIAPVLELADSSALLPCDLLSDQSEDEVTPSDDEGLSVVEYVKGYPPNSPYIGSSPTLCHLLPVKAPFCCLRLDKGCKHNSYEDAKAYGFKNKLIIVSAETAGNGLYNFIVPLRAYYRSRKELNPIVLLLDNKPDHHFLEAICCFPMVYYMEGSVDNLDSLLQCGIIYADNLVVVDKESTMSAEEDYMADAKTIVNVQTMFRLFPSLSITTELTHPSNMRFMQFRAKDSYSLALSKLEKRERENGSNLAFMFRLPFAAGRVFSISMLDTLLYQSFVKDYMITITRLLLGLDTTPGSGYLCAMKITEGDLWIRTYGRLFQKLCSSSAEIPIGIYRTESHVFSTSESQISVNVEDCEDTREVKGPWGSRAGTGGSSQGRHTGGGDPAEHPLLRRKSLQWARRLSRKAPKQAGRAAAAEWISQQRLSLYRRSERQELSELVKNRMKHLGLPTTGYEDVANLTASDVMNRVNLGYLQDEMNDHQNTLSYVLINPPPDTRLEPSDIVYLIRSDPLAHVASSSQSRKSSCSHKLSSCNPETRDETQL
row,IC50 [nM],Compound
1,< 250,"O=C(N[C@H]1CCCc2oc(-c3ccnc(C(F)(F)F)c3)nc21)c1cn(C(F)(F)F)nc1C(F)F [Compound I-506a, (S)-3-(Difluoromethyl)-1-(trifluoromethyl)-N-(2-(2-(trifluoromethyl)pyridin-4-yl)-4,5,6,7-tetrahydrobenzo[d]oxazol-4-yl)-1H-pyrazole-4-carboxamide]"
2,< 250,"O=C(N[C@H]1CCCc2oc(-c3ccnc(C(F)(F)F)c3)nc21)C12CC(C(F)(F)F)(C1)C2 [Compound I-507a, (S)-3-(Trifluoromethyl)-N-(2-(2-(trifluoromethyl)pyridin-4-yl)-4,5,6,7-tetrahydrobenzo[d]oxazol-4-yl)bicyclo[1.1.1]pentane-1-carboxamide]"
3,< 250,"CC(F)(F)c1cc(-c2nc3c(o2)CCC[C@@H]3NC(=O)c2cccc(F)c2)ccn1 [Compound I-508a, (S)—N-(2-(2-(1,1-difluoroethyl)pyridin-4-yl)-4,5,6,7-tetrahydrobenzo[d]oxazol-4-yl)-3-fluorobenzamide]"
4,> 1000,"CC(F)(F)c1cc(-c2nc3c(o2)CCC[C@H]3NC(=O)c2cccc(F)c2)ccn1 [Compound I-508b, (R)—N-(2-(2-(1,1-difluoroethyl)pyridin-4-yl)-4,5,6,7-tetrahydrobenzo[d]oxazol-4-yl)-3-fluorobenzamide]"
5,> 1000,O=C(N[C@@H]1CCCc2nc(-c3ccnc(C4CC4)c3)oc21)c1cncc(C(F)(F)F)n1 [Compound I-509b]
6,> 1000,O=C(N[C@@H]1CCCc2nc(-c3ccnc(C(F)(F)F)c3)oc21)c1cncc(C(F)(F)F)n1 [Compound I-510b]
7,> 1000,O=C(N[C@@H]1CCCc2nc(-c3cc(C4CC4)ncc3F)oc21)c1cncc(C(F)(F)F)n1 [Compound I-511b]
8,> 1000,COc1cc(-c2nc3c(o2)[C@H](NC(=O)c2cncc(C(F)(F)F)n2)CCC3)ccn1 [Compound I-512b]
9,> 1000,COc1cc(-c2nc3c(o2)[C@H](NC(=O)c2cncc(C(F)(F)F)n2)CCC3)c(Cl)cn1 [Compound I-513b]
10,< 250,"Cn1nc(C(F)(F)F)cc1C(=O)N[C@H]1CCCc2nc(-c3cc(C(F)(F)F)ncc3F)oc21 [Compound I-514a, (S)—N-(2-(5-Fluoro-2-(trifluoromethyl)pyridin-4-yl)-4,5,6,7-tetrahydrobenzo[d]oxazol-7-yl)-1-methyl-3-(trifluoromethyl)-1H-pyrazole-5-carboxamide]"
11,< 250,O=C(N[C@H]1CCCc2nc(-c3ccnc(C(F)(F)F)c3)oc21)C12CC(C(F)(F)F)(C1)C2 [Compound I-515a]
12,500 to 1000,COc1cc(-c2cc3n(n2)CCCC[C@H]3NC(=O)c2cc(F)cc(C#N)c2)c(F)cn1 [Compound I-516b]

# The next lines start with the compound.
row,Compound,IC50 [nM]
1,"N#CC12CC(C(=O)N[C@H]3CCn4nc(-c5ccnc(C(F)(F)F)c5)cc43)(C1)C2 [Compound I-491a, (S)-3-Cyano-N-(2-(2-(trifluoromethyl)pyridin-4-yl)-5,6-dihydro-4H-pyrrolo[1,2-b]pyrazol-4-yl)bicyclo[1.1.1]pentane-1-carboxamide]",500 to 1000
2,"Cc1cnc(C2CC2)cc1-c1cc2n(n1)CC[C@@H]2NC(=O)c1nc(C(F)(F)F)nn1C [Compound I-492a, (S)-N-(2-(2-Cyclopropyl-5-methylpyridin-4-yl)-5,6-dihydro-4H-pyrrolo[1,2-b]pyrazol-4-yl)-1-methyl-3-(trifluoromethyl)-1H-1,2,4-triazole-5-carboxamide]",< 250
3,"O=C(N[C@H]1CCn2nc(-c3cc(C(F)(F)F)ncc3F)cc21)C12CC(C(F)(F)F)(C1)C2 [Compound I-493a, (S)-N-(2-(5-Fluoro-2-(trifluoromethyl)pyridin-4-yl)-5,6-dihydro-4H-pyrrolo[1,2-b]pyrazol-4-yl)-3-(trifluoromethyl)bicyclo[1.1.1]pentane-1-carboxamide]",< 250
4,"O=C(N[C@H]1CCn2nc(-c3ccnc(C4CC4)c3)cc21)C12CC(C(F)(F)F)(C1)C2 [Compound I-494a, (S)-N-(2-(2-Cyclopropylpyridin-4-yl)-5,6-dihydro-4H-pyrrolo[1,2-b]pyrazol-4-yl)-3-(trifluoromethyl)bicyclo[1.1.1]pentane-1-carboxamide]",< 250
5,"Cn1nc(C(F)(F)F)nc1C(=O)N[C@H]1CCCn2nc(-c3cc(C4CC4)ncc3F)cc21 [Compound I-495a, (S)-N-(2-(2-Cyclopropyl-5-fluoropyridin-4-yl)-4,5,6,7-tetrahydropyrazolo[1,5-a]pyridin-4-yl)-1-methyl-3-(trifluoromethyl)-1H-1,2,4-triazole-5-carboxamide]",< 250
6,"O=C(N[C@H]1CCCn2nc(-c3ccnc(C4CC4)c3)cc21)c1ccnc(C(F)(F)F)c1 [Compound I-496a, (S)-N-(2-(2-Cyclopropylpyridin-4-yl)-4,5,6,7-tetrahydropyrazolo[1,5-a]pyridin-4-yl)-2-(trifluoromethyl)isonicotinamide]",< 250
7,"O=C(N[C@H]1CCCn2nc(-c3ccnc(C(F)(F)F)c3)cc21)c1cn(C(F)(F)F)nc1C(F)F [Compound I-497a, (S)-3-(Difluoromethyl)-1-(trifluoromethyl)-N-(2-(2-(trifluoromethyl)pyridin-4-yl)-4,5,6,7-tetrahydropyrazolo[1,5-a]pyridin-4-yl)-1H-pyrazole-4-carboxamide]",< 250
8,"O=C(N[C@H]1CCCn2nc(-c3cc(C4CC4)ncc3F)cc21)c1ccnc(OC(F)(F)F)c1 [Compound I-498a, (S)-N-(2-(2-Cyclopropyl-5-fluoropyridin-4-yl)-4,5,6,7-tetrahydropyrazolo[1,5-a]pyridin-4-yl)-2-(trifluoromethoxy)isonicotinamide]",< 250
9,"Cn1nc(C(F)(F)F)nc1C(=O)N[C@H]1CCCn2nc(-c3ccnc(C4CC4)c3)cc21 [Compound I-499a, (S)-N-(2-(2-Cyclopropylpyridin-4-yl)-4,5,6,7-tetrahydropyrazolo[1,5-a]pyridin-4-yl)-1-methyl-3-(trifluoromethyl)-1H-1,2,4-triazole-5-carboxamide]",< 250
10,"CC(F)(F)c1cc(-c2cc3n(n2)CCC[C@@H]3NC(=O)c2ccnc(C(F)(F)F)c2)ccn1 [Compound I-500a, (S)-N-(2-(2-(1,1-Difluoroethyl)pyridin-4-yl)-4,5,6,7-tetrahydropyrazolo[1,5-a]pyridin-4-yl)-2-(trifluoromethyl)isonicotinamide]",< 250
11,"O=C(N[C@H]1CCCn2nc(-c3ccnc(C(F)(F)F)c3)cc21)C12CC(C(F)(F)F)(C1)C2 [Compound I-501a, (S)-3-(Trifluoromethyl)-N-(2-(2-(trifluoromethyl)pyridin-4-yl)-4,5,6,7-tetrahydropyrazolo[1,5-a]pyridin-4-yl)bicyclo[1.1.1]pentane-1-carboxamide]",< 250
12,O=C(N[C@@H]1CCCn2nc(-c3cc(C(F)(F)F)ncc3F)nc21)c1cncc(C(F)(F)F)n1 [Compound I-502b],> 1000
13,COc1cc(-c2nc3c(o2)CCC[C@H]3NC(=O)c2cncc(C(F)(F)F)n2)c(F)cn1 [Compound I-503b],> 1000
14,Cn1nc(C(F)(F)F)nc1C(=O)N[C@@H]1CCCc2oc(-c3ccnc(C4CC4)c3)nc21 [Compound I-504b],> 1000
15,"O=C(N[C@H]1CCCc2oc(-c3ccnc(C4CC4)c3)nc21)c1cn(C(F)(F)F)nc1C(F)F [Compound I-505a, (S)—N-(2-(2-Cyclopropylpyridin-4-yl)-4,5,6,7-tetrahydrobenzo[d]oxazol-4-yl)-3-(difluoromethyl)-1-(trifluoromethyl)-1H-pyrazole-4-carboxamide]",< 250
